Results: PMC7557582, “Broad-Spectrum Antimicrobial Activity and Improved Stability of a D-Amino Acid Enantiomer of DMPC-10A, the Designed Derivative of Dermaseptin Truncates” (Antibiotics, 2020)
In brackets after ≈: the same amount, converted by molar mass. Non-standard residues stand in square brackets, D forms with d. Residues, ends and D or L forms follow the SMILES beside them. Cha = N[C@@H](CC1CCCCC1)C(=O)O

Columns and labels:
[1] = system: E. faecalis (NCTC 12697); assay type: cell-based, Enterococcus faecalis; conditions: NCTC 12697, pH 7.4
Experimental: (§3) Gram-positive bacteria Staphylococcus aureus (NCTC 10788) and Enterococcus faecalis (NCTC 12697) and Gram-negative bacteria Escherichia coli (NCTC 10418), Pseudomonas aeruginosa (ATCC 27853), and Klebsiella pneumoniae (ATCC 43816) were tested. […] All the bacterial strains were inoculated in Mueller Hinton broth (MHB), pH 7.4 (Oxiod, Basingstoke, UK) at 37 °C. Then, the log-phase bacteria were mixed with the peptide at the concentrations from 512 to 1 µM in two-fold dilution, in a 96 well-plate. The wells contained sterilized MHB and bacteria cultures were employed as a blank and growth control, respectively.

[2] = system: MRSA (NCTC 12493); assay type: cell-based, methicillin-resistant S. aureus; conditions: NCTC 12493, pH 7.4
Experimental: as §3

[3] = cited from earlier work
Description: Dermaseptins are a class of cationic AMPs that were discovered from the skin of Phyllomedusa frogs, usually consisting of 28–34 amino acids. They can form an amphipathic α-helix in amphiphilic environments, which makes them bind easily to bacterial lipid bilayers. Dermaseptins contain a conserved Trp residue in position three and a unique internal motif, -AAA/GKAAL/G/NA-, and exert broad-spectrum antimicrobial activity against a range of ESKAPE pathogens. […] Compared with the other AMPs applied using the same model, such as Japonicin-2LF [53], DMPC-10B exerted relatively stronger efficacy. Japonicin-2LF prevented around 50% mortality at 50 mg/kg in treatment of MRSA infection, but DMPC-10B achieved similar efficacy at 20 mg/kg.

[4] = biological target: T1, trypsin (Bos taurus, UniProt P00760); test: Enzyme stability assay, trypsin; assay type: in vitro ADME; conditions: peptide in PBS, peptide:trypsin 100:1 (m/m), time points 0-120 min, stopped with 10% TFA, RP-HPLC peak area, three replicates
T1 construct: gene PRSS1
T1 sequence (P00760 24-246): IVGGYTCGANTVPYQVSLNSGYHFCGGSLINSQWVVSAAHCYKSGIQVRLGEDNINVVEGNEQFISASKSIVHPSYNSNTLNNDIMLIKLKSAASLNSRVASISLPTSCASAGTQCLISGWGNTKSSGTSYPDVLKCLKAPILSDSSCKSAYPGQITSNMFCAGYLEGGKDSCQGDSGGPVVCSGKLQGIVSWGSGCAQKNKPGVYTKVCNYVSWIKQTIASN
Experimental: (§1) The peptides were dissolved in phosphate-buffered saline (PBS) and mixed with the respective enzyme (trypsin and chymotrypsin) with a ratio of 100:1 (m/m). Then, 135 µl of the reaction solution was transferred into a new vial. The hydrolysis reaction was immediately terminated by adding 15 µl of 10% TFA at the different time points (0, 5, 10, 20, 40, 60, 120 min). The mixture was then analyzed by reverse-phase HPLC and respective peak areas were calculated to obtain the residual amount of peptides at different times.

[5] = system: K. pneumoniae (ATCC BAA 1705); assay type: cell-based, Klebsiella pneumoniae; conditions: ATCC BAA 1705, pH 7.4
Experimental: as §3

[6] = system: K. pneumoniae (ATCC BAA 2342); assay type: cell-based, Klebsiella pneumoniae; conditions: ATCC BAA 2342, pH 7.4
Experimental: as §3

[7] = system: S. aureus (NCTC 10788); assay type: cell-based, Staphylococcus aureus; conditions: NCTC 10788, pH 7.4
Experimental: as §3

[8] = system: E. coli (NCTC 10418); assay type: cell-based, Escherichia coli
Experimental: (§2) Furthermore, the antimicrobial activity in the presence of MgCl2, CaCl2, NaCl and 10% fetal bovine serum (FBS) was investigated. In detail, 2 and 5 mM of MgCl2 and CaCl2, and 150 and 375 mM NaCl, were applied, respectively. The supplements were added into the medium that was used for diluting the bacteria suspension. Then, the diluted bacteria culture was mixed with the peptide stock solution in the 96-well plate, as mentioned above. The assay was performed three times and each assay contained 5 replicates.

[9] = system: S. aureus (NCTC 10788); assay type: cell-based, Staphylococcus aureus
Experimental: as §2

[10] = system: K. pneumoniae (ATCC 43816); assay type: cell-based, Klebsiella pneumoniae; conditions: ATCC 43816, pH 7.4
Experimental: as §3

[11] = system: P. aeruginosa (ATCC 27853); assay type: cell-based, Pseudomonas aeruginosa; conditions: ATCC 27853, pH 7.4
Experimental: as §3

[12] = biological target: chymotrypsin (Bos taurus, UniProt P00766); test: Enzyme stability assay, chymotrypsin; assay type: in vitro ADME; conditions: peptide in PBS, peptide:chymotrypsin 100:1 (m/m), time points 0-120 min, stopped with 10% TFA, RP-HPLC peak area, three replicates
Experimental: as §1

[13] = system: E. coli (NCTC 10418); assay type: cell-based, Escherichia coli; conditions: NCTC 10418, pH 7.4
Experimental: as §3

CC(C)C[C@H](NC(=O)[C@H](C)N)C(=O)N[C@@H](Cc1c[nH]c2ccccc12)C(=O)N[C@@H](CCCCN)C(=O)N[C@@H](CCCCN)C(=O)N[C@@H](CC(C)C)C(=O)N[C@@H](CC(C)C)C(=O)N[C@@H](CCCCN)C(=O)N[C@@H](CCCCN)C(=O)N[C@@H](CC1CCCCC1)C(N)=O [DMPC-10A] (H-ALWKKLLKK[Cha]-NH2) showed an MBC [1] of 64 µM (≈ 81.9 µg/mL), an MIC [1] of 64 µM (≈ 81.9 µg/mL) and an MBC [2] of 16 µM (≈ 20.5 µg/mL). For the same compound, the MIC [2] was 8 µM (≈ 10.2 µg/mL), the “hemolytic effect” value [3] was “considerable hemolytic effect” and the “time in which trypsin completely cleaved the peptide” value [4] was 10 min. For the same compound, the MBC [5] was 32 µM (≈ 41 µg/mL), the MIC [5] was 32 µM (≈ 41 µg/mL) and the MBC [6] was 16 µM (≈ 20.5 µg/mL). It also gave an MIC [6] of 16 µM (≈ 20.5 µg/mL), an MBC [7] of 8 µM (≈ 10.2 µg/mL) and an MIC [7] of 4 µM (≈ 5.12 µg/mL). The “MIC with CaCl2 5 mM” value [8] was 64 µM, the “MIC with FBS 10%” value [8] was 16 µM and the “MIC with MgCl2 5 mM” value [8] was 64 µM. For the same compound, the “MIC with NaCl 150 mM” value [8] was 16 µM, the “MIC with NaCl 375 mM” value [8] was 32 µM and the “MIC, no additive” value [8] was 8 µM (≈ 10.2 µg/mL). The “MIC with CaCl2 5 mM” value [9] was 64 µM, the “MIC with FBS 10%” value [9] was 16 µM and the “MIC with MgCl2 5 mM” value [9] was 64 µM. For the same compound, the “MIC with NaCl 150 mM” value [9] was 32 µM, the “MIC with NaCl 375 mM” value [9] was 64 µM and the “MIC, no additive” value [9] was 4 µM (≈ 5.12 µg/mL). It also gave an MBC [10] of 64 µM (≈ 81.9 µg/mL), an MIC [10] of 4 µM (≈ 5.12 µg/mL) and an MBC [11] of 4 µM (≈ 5.12 µg/mL). For the same compound, the MIC [11] was 4 µM (≈ 5.12 µg/mL), the “time in which chymotrypsin cleaved the peptide” value [12] was 40 min and the MBC [13] was 8 µM (≈ 10.2 µg/mL). For the same compound, the MIC [13] was 8 µM (≈ 10.2 µg/mL).
